From patent publication US20140057865A1, “ANALYSIS OF NODES IN CELLULAR PATHWAYS” (Nodality, Inc., priority 2009, published 2014)
“Also recorded” adds a separate entry of the source.

Tests used:
U937 cells [1] = test: Cell cycle nodes by flow cytometry, ON01910.Na titration; type: cell-based, human
Experimental: (§1) In the example, erythroblast (TF-1) and U937 cell lines, as well as healthy bone marrow mononuclear cells, were treated with a test modulator (ON01910.Na) over several dilutions for 24 hours. Flow cytometry was used to obtain multiple intracellular readouts or nodes, including levels of protein phosphorylation, levels of protein expression, cell size and shape, and DNA content.
(§2) The findings shown in FIGS. 4 through 7 were tested in other cell types.

[2] = test system: healthy bone marrow mononuclear cells; test: as above; type: cell-based
Experimental: as §1, §2

[3] = test system: healthy bone marrow mononuclear cells; test: Viability of healthy BMMCs, ON01910.Na titration; type: cell-based
Experimental: as §1, §2

TF-1 cells = test: Cell cycle nodes (p-Cdk1 Y15, p-Histone H3 S28, Cyclin B1) by flow cytometry; type: cell-based, human
Experimental: as §1
FIGS. 4-6 show the effects of two concentrations of ON01910.Na on different markers or nodes whose activation status correlates with cell cycle progression. […] Cdk1 activation normally occurs at the end of G2, so increased Cdk1 levels […] at tyrosine 15 are consistent with cell cycle arrest in G2 or early M phases (See Alberts et al, Molecular Biology of the Cell, 4th Ed., Chapter 17 for a detailed discussion of the cell cycle).
Phosphorylation of histone H3 is a marker of chromatin condensation and entry into M phase (See Alberts et al, Molecular Biology of the Cell, 4th Ed., FIG. 4-35 for discussion of histone modifications). Continuous treatment with ON01910.Na for 24-hours enhances H3 (Ser28) phosphorylation. The effects of these two doses on the node state (serine 28 phosphorylation of H3) are detectable using flow cytometry. […] FIG. 7 presents a summary of the effects of ON01910.Na treatment on the Cyclin B1, p-Cdk1 Y15, and pH3 S28 cell cycle nodes.

[4] = test system: erythroblast (TF-1) cell line; test: Cell death by forward and side scatter of light; type: cell-based, human; conditions: TF-1 erythroblasts, 24 and 48-hour continuous treatment
Text: In some embodiments of the invention, the activatible elements may function in cell death, including apoptosis or necrosis. A person of ordinary skill in the art may analyze cell death using stains, biomarkers, assays, or kits to identify node states associated with cell cycle progression and cell death without departing from the scope of the invention. By way of example, stains used to identify cell death include, but are not limited to amine aqua, propidium iodide, 4′,6-diamidino-2-phenylindole (DAPI), bromodeoxyuridine (BrdU), acridine orange, SYTOX, and TUNEL. A person of ordinary skill in the art will appreciate that several of the aforementioned stains, such as DAPI, may also be used to determine the cell cycle of a single cell or population of cells. Cell death may also be identified using the forward versus side scatter dot plots obtained during flow cytometry.
as §1

[5] = test system: erythroblast (TF-1) cell line; test: DNA content by DAPI staining, flow cytometry; type: cell-based, human; conditions: for cell cycle arrest and cell death by DNA content (sub-2n through 4n, DAPI staining): TF-1 erythroblasts, several dilutions, 24 hours
Text: DNA content can be directly monitored using fluorescent dyes that bind DNA in the major or minor groove. This labeled DNA can be detected and cellular DNA content can be determined using flow cytometry or other methods as described below. DNA content can be used to indicate the status of a cell or population of cells. The effect of a compound on both the cell cycle and cell death pathways can be determined by monitoring changes in DNA content within a single cell or a population of cells. For example, cell cycle arrest in G1 or G2/M phases of the cell cycle may appear as an increase in 2n or 4n DNA content respectively while an increase in cell death may appear as an increase in sub-2n DNA content.
as §1

U937 cells [6] = test: Cell cycle progression and cell death by DAPI staining and scatter; type: cell-based, human; conditions: Vidaza 2.5 μM, Dacogen 0.625 μM, 20 hours
Experimental: (§3) FIGS. 9 and 10 show an embodiment of the invention used to analyze the effects of the DNA methyltransferase inhibitor drugs Vidaza® cytidine analog and Dacogen® cytidine analog on cultured U937 cells. See Example 1 in U.S. Ser. No. 61/120,320 for detailed cell culture, staining, and flow cytometry protocols similar to those used in this example. Here, to analyze the effects of Vidaza® cytidine analog and Dacogen® cytidine analog on cell cycle progression and cell death, U937 cells were treated with Vidaza® cytidine analog (5-Azacytidine) at a concentration of 2.5 μM, or Dacogen® cytidine analog (5-Aza-2′-deoxycytidine) at a concentration of 0.625 μM. The cells were continuously incubated with the drugs for 20 hours in 10% FBS RPMI, fixed, permeabilized, and then stained with DAPI, or stained with DAPI and immunolabeled with antibodies against DMNT 1.
(§4) (See Alberts et al., Molecular Biology of the Cell, 4th Ed., Chapter 17 for an overview of the cell cycle). […] Additionally, the experimental results in this example may be used to identify therapeutic agents that can be used in combination with either Vidaza® cytidine analog or Dacogen® cytidine analog. […]

DNMT1 = DNMT1 expression by immunolabeling, flow cytometry; type: cell-based, human; conditions: U937 cells, Vidaza 2.5 μM, 20 hours
Experimental: as §3, §4

[7] = TF-1 erythroblasts, two concentrations, 24 hours continuous

What does the source list for `COc1cc(OC)c(/C=C/S(=O)(=O)Cc2ccc(OC)c(NCC(=O)[O-])c2)c(OC)c1.[Na+]` [ON01910.Na]?
changes in cell cycle signaling molecules (U937 cells [1]): simultaneous changes in cell cycle signaling molecules at the same drug concentration; expression of Cyclin B1 (U937 cells [1]; 24 hours): increased; phosphorylation of Cdk1 (U937 cells [1]; 24 hours): decreased phosphorylation of Cdk1; phosphorylation of H3 (U937 cells [1]; 24 hours): increased phosphorylation of H3; cycling bone marrow mononuclear cells as measured by p-Cdk1 Y15 ([2]; BMMCs): dose dependent decrease of cycling bone marrow mononuclear cells; Cyclin B1 expression levels ([2]; healthy BMMCs): Cyclin B1 expression levels increase; viability of healthy bone marrow mononuclear cells [3]: does not significantly alter viability; cell cycle arrest indicated by Cyclin B1, p-Cdk1 Y15 and pH3 S28 nodes (TF-1 cells; TF-1 cells, various concentrations, 24 hours): arrest in the G2 or M phases of the cell cycle in a dose dependent manner; Cyclin B1 expression (TF-1 cells; TF-1 erythroblasts, increased concentration): more cells express Cyclin B1; also recorded: mediates an increase in cyclin B1; p-Cdk1 Y15 phosphorylation (TF-1 cells; [7]): increases dephosphorylation of p-Cdk1 at tyrosine 15; also recorded: mediates dephosphorylation of p-Cdk1^Y15; p-Histone H3 S28 phosphorylation (TF-1 cells; [7]): histone 3 serine 28 phosphorylation increases; also recorded: mediates an increase in p-HistoneH3^S28; cell death by scatter properties [4]: induce cell death, with a greater magnitude of cell death observed following longer treatment and higher dose; also recorded: induces cell death in erythroblasts; cell death by scatter properties ([4]; listed as ON-01910.Na): induces cell death; 4n DNA content peak ([5]; TF-1 cells, 0.12 μM and 0.37 μM): increases in a dose-dependent manner; cell cycle arrest and cell death by DNA content (sub-2n through 4n, DAPI staining) [5]: induces arrest in G2/M and cell death in a dose-dependent manner; cell cycle arrest and cell death by DNA content (sub-2n through 4n, DAPI staining) ([5]; listed as ON-01910.Na): induces arrest in G2/M and cell death

How did the “effect on cell cycle progression and cell death (DAPI frequency plots, scatter)” value (U937 cells [6]) turn out when `Nc1ncn([C@@H]2O[C@H](CO)[C@@H](O)[C@H]2O)c(=O)n1` [Vidaza, 5-Azacytidine] was run?
Its value is “increased cell death; also recorded: inducing cell death”.

What about the “expression of DNMT1” value (DNMT1) of the same molecule?
The value was “decreased expression; also recorded: mediates a decrease in DNMT1”.

How did the “effect on cell cycle progression and cell death (DAPI frequency plots, scatter)” value (U937 cells [6]) turn out when `Nc1ncn([C@H]2C[C@H](O)[C@@H](CO)O2)c(=O)n1` [Dacogen, 5-Aza-2′-deoxycytidine] was run?
Its value is “S phase cell cycle arrest; also recorded: inducing arrest at S phase”.
